Experimental findings from patent US8236792B2, “Substituted pyrrolidine amides as modulators of the histamine H3 receptor” (Janssen Pharmaceutica NV, priority 2008, dated 2012) are described below.

In this assay the target is human H3 receptor (Homo sapiens, UniProt Q9Y5N1). As to the kind of experiment: H3 Receptor Binding (Human) Method 2, [125I]-iodoproxyfan competitive radioligand binding. Also on record: expressed in transfected cells. As to conditions: read-out: Human H3 Ki.
Sequence of human H3 receptor (Q9Y5N1 whole entry): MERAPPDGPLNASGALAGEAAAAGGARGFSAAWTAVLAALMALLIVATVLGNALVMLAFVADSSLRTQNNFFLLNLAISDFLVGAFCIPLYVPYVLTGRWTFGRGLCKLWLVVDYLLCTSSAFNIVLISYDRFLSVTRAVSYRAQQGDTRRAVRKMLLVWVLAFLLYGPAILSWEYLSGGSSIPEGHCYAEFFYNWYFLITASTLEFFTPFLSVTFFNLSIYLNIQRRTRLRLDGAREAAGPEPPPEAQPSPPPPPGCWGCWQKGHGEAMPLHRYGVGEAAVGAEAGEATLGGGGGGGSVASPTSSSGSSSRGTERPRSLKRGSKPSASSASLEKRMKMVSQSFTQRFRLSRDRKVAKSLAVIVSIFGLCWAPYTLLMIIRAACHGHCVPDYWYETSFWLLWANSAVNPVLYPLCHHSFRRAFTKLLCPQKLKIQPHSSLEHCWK

With `CC(C)(C)OC(=O)N1C[C@H](Oc2ccccn2)C[C@H]1C(=O)N1CCCN(C2CCC2)CC1` (stereo in doubt) [Example 50, (2S,4R)-2-(4-Cyclobutyl-[1,4]diazepane-1-carbonyl)-4-(pyridin-2-yloxy)-pyrrolidine-1-carboxylic acid tert-butyl ester], the Ki (commonly a dissociation constant, usually derived from enzyme kinetics or from competition with a known ligand) was determined as 5 nM. As for `Cc1cnc(F)cc1O[C@@H]1C[C@@H](C(=O)N2CCCN(C3CCC3)CC2)N(C(=O)OC(C)(C)C)C1` (stereo in doubt) [Example 51, (2S,4R)-2-(4-Cyclobutyl-[1,4]diazepane-1-carbonyl)-4-(2-fluoro-5-methyl-pyridin-4-yloxy)-pyrrolidine-1-carboxylic acid tert-butyl ester], the figure is 2 nM; as for `CC(C)(C)OC(=O)N1CC[C@H](O)[C@H]1C(=O)N1CCCN(C2CCC2)CC1` [Example 3, (2S,3S)-2-(4-Cyclobutyl-[1,4]diazepane-1-carbonyl)-3-hydroxy-pyrrolidine-1-carboxylic acid tert-butyl Ester], 1270 nM; as for `CC(C)(C)OC(=O)N1C[C@@H](O)C[C@@H]1C(=O)N1CCCN(C2CCC2)CC1` [Example 4, (2R,4S)-2-(4-Cyclobutyl-[1,4]diazepane-1-carbonyl)-4-hydroxy-pyrrolidine-1-carboxylic acid tert-butyl Ester], 53 nM. As for `CC(C)(C)OC(=O)N1C[C@H](O)C[C@@H]1C(=O)N1CCCN(C2CC2)CC1` [Example 5, (2R,4R)-2-(4-Cyclopropyl-[1,4]diazepane-1-carbonyl)-4-hydroxy-pyrrolidine-1-carboxylic acid tert-butyl Ester], the figure is 1250 nM; as for `CC(C)(C)OC(=O)N1C[C@H](O)C[C@@H]1C(=O)N1CCN(C2CCCC2)CC1` [Example 6, (2R,4R)-2-(4-Cyclopentyl-piperazine-1-carbonyl)-4-hydroxy-pyrrolidine-1-carboxylic acid tert-butyl Ester], 1110 nM; as for `CC(C)(C)OC(=O)N1C[C@H](O)C[C@@H]1C(=O)N1CCCN(C2CCCC2)CC1` [Example 7, (2R,4R)-2-(4-Cyclopentyl-[1,4]diazepane-1-carbonyl)-4-hydroxy-pyrrolidine-1-carboxylic acid tert-butyl Ester], 432 nM. `CC(C)(C)OC(=O)N1C[C@H](O)C[C@@H]1C(=O)N1CCCN(C2CCC2)CC1` [Example 8, (2R,4R)-2-(4-Cyclobutyl-[1,4]diazepane-1-carbonyl)-4-hydroxy-pyrrolidine-1-carboxylic acid tert-butyl Ester]: the Ki came out at 534 nM. As for `O=C([C@H]1C[C@@H](O)CN1C(=O)OCc1ccccc1)N1CCCN(C2CCC2)CC1` [Example 9, (2R,4R)-2-(4-Cyclobutyl-[1,4]diazepane-1-carbonyl)-4-hydroxy-pyrrolidine-1-carboxylic Acid Benzyl Ester], the figure is 50 nM; as for `CC(=O)N1C[C@@H](O)C[C@@H]1C(=O)N1CCCN(C2CCC2)CC1` [Example 10, (2R,4S)-1-[2-(4-Cyclobutyl-[1,4]diazepane-1-carbonyl)-4-hydroxy-pyrrolidin-1-yl]-ethanone], 115 nM. The value for `CC(C)(C)OC(=O)N1C[C@@H](Oc2ccccc2)C[C@H]1C(=O)N1CCCN(C2CCC2)CC1` [Example 14, (2S,4S)-2-(4-Cyclobutyl-[1,4]diazepane-1-carbonyl)-4-phenoxy-pyrrolidine-1-carboxylic acid tert-butyl ester] was 126 nM; that for `CSc1ccc(O[C@H]2C[C@H](C(=O)N3CCCN(C4CCC4)CC3)N(C(=O)OC(C)(C)C)C2)cc1` [Example 23, (2R,4S)-2-(4-Cyclobutyl-[1,4]diazepane-1-carbonyl)-4-(4-methylsulfanyl-phenoxy)-pyrrolidine-1-carboxylic acid tert-butyl ester] was 7 nM; that for `Cc1cc(O[C@H]2C[C@H](C(=O)N3CCCN(C4CCC4)CC3)N(C(=O)OC(C)(C)C)C2)ccc1Cl` [Example 24, (2R,4S)-4-(4-Chloro-3-methyl-phenoxy)-2-(4-cyclobutyl-[1,4]diazepane-1-carbonyl)-pyrrolidine-1-carboxylic acid tert-butyl ester] was 4 nM.

As to `CC(C)(C)OC(=O)N1C[C@@H](Oc2ccc(S(C)(=O)=O)cc2)C[C@@H]1C(=O)N1CCCN(C2CCC2)CC1` [Example 25, (2R,4S)-2-(4-Cyclobutyl-[1,4]diazepane-1-carbonyl)-4-(4-methanesulfonyl-phenoxy)-pyrrolidine-1-carboxylic acid tert-butyl ester], the Ki was 5 nM. The value for `COc1cccc(O[C@H]2C[C@H](C(=O)N3CCCN(C4CCC4)CC3)N(C(=O)OC(C)(C)C)C2)c1` [Example 26, (2R,4S)-2-(4-Cyclobutyl-[1,4]diazepane-1-carbonyl)-4-(3-methoxy-phenoxy)-pyrrolidine-1-carboxylic acid tert-butyl ester] was 12 nM; that for `CC(C)(C)OC(=O)N1C[C@@H](Oc2ccc(C(F)(F)F)cc2)C[C@@H]1C(=O)N1CCCN(C2CCC2)CC1` [Example 28, (2R,4S)-2-(4-Cyclobutyl-[1,4]diazepane-1-carbonyl)-4-(4-trifluoromethyl-phenoxy)-pyrrolidine-1-carboxylic acid tert-butyl ester] was 7 nM; that for `Cc1ccc(O[C@H]2C[C@H](C(=O)N3CCCN(C4CCC4)CC3)N(C(=O)OC(C)(C)C)C2)cc1` [Example 29, (2R,4S)-2-(4-Cyclobutyl-[1,4]diazepane-1-carbonyl)-4-p-tolyloxy-pyrrolidine-1-carboxylic acid tert-butyl ester] was 8 nM.

Turning to `Cc1ccccc1O[C@H]1C[C@H](C(=O)N2CCCN(C3CCC3)CC2)N(C(=O)OC(C)(C)C)C1` [Example 30, (2R,4S)-2-(4-Cyclobutyl-[1,4]diazepane-1-carbonyl)-4-o-tolyloxy-pyrrolidine-1-carboxylic acid tert-butyl ester], the Ki is 8 nM. In the case of `CC(C)(C)OC(=O)N1C[C@@H](Oc2ccc(F)cc2)C[C@@H]1C(=O)N1CCCN(C2CC2)CC1` [Example 31, (2R,4S)-2-(4-Cyclopropyl-[1,4]diazepane-1-carbonyl)-4-(4-fluoro-phenoxy)-pyrrolidine-1-carboxylic acid tert-butyl ester], the inhibitory constant (Ki) was determined as 15 nM. As for `CC(C)(C)OC(=O)N1C[C@@H](Oc2ccc(C#N)cc2)C[C@@H]1C(=O)N1CCCN(C2CC2)CC1` [Example 32, (2R,4S)-4-(4-Cyano-phenoxy)-2-(4-cyclopropyl-[1,4]diazepane-1-carbonyl)-pyrrolidine-1-carboxylic acid tert-butyl ester], the figure is 10 nM.

With `CC(C)(C)OC(=O)N1C[C@@H](Oc2ccc(F)cc2)C[C@@H]1C(=O)N1CCN(C2CCCC2)CC1` [Example 33, (2R,4S)-2-(4-Cyclopentyl-piperazine-1-carbonyl)-4-(4-fluoro-phenoxy)-pyrrolidine-1-carboxylic acid tert-butyl ester], the Ki was found to be 24 nM. The value for `CC(C)(C)OC(=O)N1C[C@@H](Oc2ccc(C#N)cc2)C[C@@H]1C(=O)N1CCN(C2CCCC2)CC1` [Example 34, (2R,4S)-4-(4-Cyano-phenoxy)-2-(4-cyclopentyl-piperazine-1-carbonyl)-pyrrolidine-1-carboxylic acid tert-butyl ester] was 14 nM; that for `CC(C)(C)OC(=O)N1C[C@@H](Oc2ccc(F)cc2)C[C@@H]1C(=O)N1CCCN(C2CCCC2)CC1` [Example 35, (2R,4S)-2-(4-Cyclopentyl-[1,4]diazepane-1-carbonyl)-4-(4-fluoro-phenoxy)-pyrrolidine-1-carboxylic acid tert-butyl ester] was 2 nM; that for `CC(C)(C)OC(=O)N1C[C@@H](Oc2ccc(C#N)cc2)C[C@@H]1C(=O)N1CCCN(C2CCCC2)CC1` [Example 36, (2R,4S)-4-(4-Cyano-phenoxy)-2-(4-cyclopentyl-[1,4]diazepane-1-carbonyl)-pyrrolidine-1-carboxylic acid tert-butyl ester] was 3 nM. The value for `CN(C)[C@@H]1CCN(C(=O)[C@H]2C[C@H](Oc3cccc(F)c3)CN2C(=O)OC(C)(C)C)C1` [Example 37, (2R,4S)-2-((3R)-3-Dimethylamino-pyrrolidine-1-carbonyl)-4-(3-fluoro-phenoxy)-pyrrolidine-1-carboxylic acid tert-butyl ester] was > 10000 nM; that for `CC(C)(C)OC(=O)N1C[C@@H](Oc2cccc(F)c2)C[C@@H]1C(=O)N1CCC(N2CCCC2)C1` (stereo partly drawn) [Example 39, (2R,4S)-2-([1,3′]Bipyrrolidinyl-1′-carbonyl)-4-(3-fluoro-Phenoxy)-pyrrolidine-1-carboxylic acid tert-butyl ester] was 43 nM. Regarding `CN(C)C1CCN(C(=O)[C@H]2C[C@H](Oc3ccc(F)cc3)CN2C(=O)OC(C)(C)C)CC1` [Example 40, (2R,4S)-2-(4-Dimethylamino-piperidine-1-carbonyl)-4-(4-fluoro-phenoxy)-pyrrolidine-1-carboxylic acid tert-butyl ester], the Ki worked out at 1240 nM.

Turning to `CC(C)(C)OC(=O)N1C[C@H](Oc2ccccc2)C[C@H]1C(=O)N1CCCN(C2CCC2)CC1` [Example 48, (2S,4R)-2-(4-Cyclobutyl-[1,4]diazepane-1-carbonyl)-4-phenoxy-pyrrolidine-1-carboxylic acid tert-butyl ester], the Ki worked out at 14 nM. As for `CC(C)(C)OC(=O)N1C[C@H](Oc2cccc(F)c2)C[C@H]1C(=O)N1CCCN(C2CCC2)CC1` [Example 49, (2S,4R)-2-(4-Cyclobutyl-[1,4]diazepane-1-carbonyl)-4-(3-fluoro-phenoxy)-pyrrolidine-1-carboxylic acid tert-butyl ester], the figure is 6 nM; as for `Cc1cnc(O[C@H]2C[C@H](C(=O)N3CCCN(C4CCC4)CC3)N(C(=O)OC(C)(C)C)C2)cc1I` [Example 52, (2R,4S)-2-(4-Cyclobutyl-[1,4]diazepane-1-carbonyl)-4-(4-iodo-5-methyl-pyridin-2-yloxy)-pyrrolidine-1-carboxylic acid tert-butyl ester], 8 nM. As for `CC(C)(C)OC(=O)N1C[C@@H](Oc2cccnc2)C[C@@H]1C(=O)N1CCCN(C2CCC2)CC1` [Example 53, (2R,4S)-2-(4-Cyclobutyl-[1,4]diazepane-1-carbonyl)-4-(pyridin-3-yloxy)-pyrrolidine-1-carboxylic acid tert-butyl ester], the figure is 2 nM.
